From ChEMBL document CHEMBL1201862, “PubChem BioAssay data set” (2004)
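Results reflect a 48-hour exposure of cells in 96-well plates to compound at five concentrations. GI50 marks 50% less growth.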 Calls of active or inactive are those of the source. Rule as the data show it: active = GI50 up to about 1.1 µM and inactive = higher.

Legend:
Assay in all cases: growth of human tumour cells (NCI), 48 h
MOLT-4 = test system: MOLT-4
M14 = test system: M14
SN12C = test system: SN12C
UACC-257 = test system: UACC-257
TK-10 = test system: TK-10
SNB-75 = test system: SNB-75
U-251 = test system: U-251
KM12 = test system: KM12
SK-MEL-28 = test system: SK-MEL-28
UACC-62 = test system: UACC-62
RXF 393 = test system: RXF 393
RPMI-8226 = test system: RPMI-8226
HCC 2998 = test system: HCC 2998
SF-268 = test system: SF-268
CCRF-CEM = test system: CCRF-CEM
NCI/ADR-RES = test system: NCI/ADR-RES
OVCAR-5 = test system: OVCAR-5
SK-OV-3 = test system: SK-OV-3
SF-539 = test system: SF-539
NCI-H522 = test system: NCI-H522

Compound | GI50 (MOLT-4) | GI50 (M14) | GI50 (SN12C) | GI50 (UACC-257) | GI50 (TK-10) | GI50 (SNB-75) | GI50 (U-251) | GI50 (KM12) | GI50 (SK-MEL-28) | GI50 (UACC-62) | GI50 (RXF 393) | GI50 (RPMI-8226) | GI50 (HCC 2998) | GI50 (SF-268) | GI50 (CCRF-CEM) | GI50 (NCI/ADR-RES) | GI50 (OVCAR-5) | GI50 (SK-OV-3) | GI50 (SF-539) | GI50 (NCI-H522)
CN1C(=O)CC(=O)N1/C(=C/c1ccccc1)c1ccccc1 | 30.3 µM (inactive) | 65.8 µM (inactive) | > 100 µM (inactive) | > 100 µM (inactive) | 33 µM (inactive) | > 100 µM (inactive) | > 100 µM (inactive) | > 100 µM (inactive) | > 100 µM (inactive) | 76.9 µM (inactive) | 14 µM (inactive) | 37.1 µM (inactive) | > 100 µM (inactive) | > 100 µM (inactive) | 21.3 µM (inactive) | > 100 µM (inactive) | > 100 µM (inactive) | > 100 µM (inactive) |  | 
CN(C)CCNC(=O)c1cc(Cl)cc2cc3ccccc3nc12 | 0.396 µM (active) |  | 0.731 µM (active) | 1.6 µM (inactive) |  | 2.27 µM (inactive) | 1.64 µM (inactive) | 1.17 µM (inactive) | 1.76 µM (inactive) | 0.652 µM (active) | 1.06 µM (active) | 0.721 µM (active) | 1.39 µM (inactive) | 1.22 µM (inactive) | 0.498 µM (active) | 0.766 µM (active) | 1.15 µM (inactive) | 2.21 µM (inactive) | 1.62 µM (inactive) | 
CCOC(=O)/C=C/c1c[nH]c(C(=O)OCC)c1 | > 100 µM (inactive) |  | > 100 µM (inactive) | > 100 µM (inactive) |  | > 66.1 µM (inactive) | > 100 µM (inactive) | > 100 µM (inactive) | > 100 µM (inactive) | > 69.3 µM (inactive) | > 100 µM (inactive) | > 100 µM (inactive) | > 100 µM (inactive) | > 100 µM (inactive) | > 100 µM (inactive) | > 100 µM (inactive) | > 100 µM (inactive) | > 100 µM (inactive) | > 100 µM (inactive) | > 90.8 µM (inactive)
C=C1C[C@@H](O)C[C@@]2(C)C[C@@H]3OC(=O)C(=C)[C@@H]3C[C@H]12 | 3.2 µM (inactive) |  | 5.57 µM (inactive) | 4.43 µM (inactive) |  | 8.47 µM (inactive) | 12.2 µM (inactive) | 6.62 µM (inactive) | 4.82 µM (inactive) | 5.96 µM (inactive) | 6.34 µM (inactive) | 2.92 µM (inactive) | 3.82 µM (inactive) | 5.46 µM (inactive) | 3.56 µM (inactive) | 6.55 µM (inactive) | 7.36 µM (inactive) | 20.7 µM (inactive) | 9.68 µM (inactive) | 7.78 µM (inactive)
COC(=O)C1C(O)C(C)C(O)C(C)(O)/C=C\C=C(C)C(=O)Nc2c(C)c(OC(C)=O)c3c(c2O)C(=O)C(C)=C2OCOC(=C23)C(C)=CC(C)(O)C(O)C(C)C1OC(C)=O (configuration not stated) | 38 µM (inactive) |  | 24 µM (inactive) | 26.1 µM (inactive) |  | 31 µM (inactive) | 57.4 µM (inactive) | 26.7 µM (inactive) | 40.1 µM (inactive) | 21.1 µM (inactive) | 22.4 µM (inactive) | 33.3 µM (inactive) | 34.4 µM (inactive) | 46.6 µM (inactive) | 34.7 µM (inactive) | > 100 µM (inactive) | > 100 µM (inactive) | > 95.1 µM (inactive) | 41.2 µM (inactive) | 32.4 µM (inactive)
CN(C)C(=O)C(F)(F)C(c1ccc(Br)cc1)C1C(=O)N(C)C(=O)N(C)C1=O (configuration not stated) |  | > 100 µM (inactive) |  | > 100 µM (inactive) | > 100 µM (inactive) | > 100 µM (inactive) | > 100 µM (inactive) | > 100 µM (inactive) | > 100 µM (inactive) | > 100 µM (inactive) | > 100 µM (inactive) | > 100 µM (inactive) | > 100 µM (inactive) | > 100 µM (inactive) | > 100 µM (inactive) | > 100 µM (inactive) | > 100 µM (inactive) | > 100 µM (inactive) |  | 
CC(=C(c1ccccc1)c1ccccc1)N1C(=O)CC(=O)N1C | 38.4 µM (inactive) | 24.7 µM (inactive) | > 100 µM (inactive) | > 100 µM (inactive) | 43.3 µM (inactive) | 67.6 µM (inactive) | 61.4 µM (inactive) | 50.4 µM (inactive) | 55.5 µM (inactive) | 26 µM (inactive) | 15.4 µM (inactive) | 32.6 µM (inactive) | 47 µM (inactive) | 25.5 µM (inactive) | 40 µM (inactive) | > 100 µM (inactive) | 53.2 µM (inactive) | > 100 µM (inactive) | 26.3 µM (inactive) | 
C=CCc1cccc2cc(C(=O)Nc3ccc(C)cc3)c(=N)oc12 | > 100 µM (inactive) | > 100 µM (inactive) | > 100 µM (inactive) | > 100 µM (inactive) |  | > 100 µM (inactive) | > 100 µM (inactive) | > 100 µM (inactive) | > 100 µM (inactive) | > 100 µM (inactive) | > 100 µM (inactive) | > 100 µM (inactive) | > 100 µM (inactive) | > 100 µM (inactive) | > 100 µM (inactive) | > 100 µM (inactive) | > 100 µM (inactive) | > 100 µM (inactive) |  | > 100 µM (inactive)
CCCCCCSc1nc(N)nc2nc[nH]c12 | > 55.2 µM (inactive) |  | 36.6 µM (inactive) | 37.7 µM (inactive) |  | 17 µM (inactive) | 35.4 µM (inactive) | 55.6 µM (inactive) | 59.3 µM (inactive) | 37 µM (inactive) | 32.7 µM (inactive) | 60.1 µM (inactive) | > 55.5 µM (inactive) | 46.7 µM (inactive) | 46.6 µM (inactive) | 37.5 µM (inactive) | 41.2 µM (inactive) | 28.8 µM (inactive) | 35.3 µM (inactive) | 15.7 µM (inactive)
CC(=O)OCC1OC(Nc2ncc(-c3ccc(C)cc3)s2)C(OC(C)=O)C(OC(C)=O)C1OC(C)=O (configuration not stated) | 24.6 µM (inactive) |  | 25.4 µM (inactive) | 25.6 µM (inactive) |  | 39 µM (inactive) | 56.8 µM (inactive) | 36.1 µM (inactive) | 39.1 µM (inactive) | 27 µM (inactive) | 47.3 µM (inactive) | 24.7 µM (inactive) | 23.3 µM (inactive) | 45.5 µM (inactive) | 29.1 µM (inactive) | 26.3 µM (inactive) | 38.1 µM (inactive) | 68.4 µM (inactive) | 43.8 µM (inactive) | 64.9 µM (inactive)
CN(C)CCOc1cc2c(c3ccccc13)-c1ccccc1C2=O | 0.339 µM (active) |  | 1.58 µM (inactive) | 1.72 µM (inactive) |  | 1.8 µM (inactive) | 2.16 µM (inactive) | 1.46 µM (inactive) | 1.8 µM (inactive) | 1.8 µM (inactive) | 2.86 µM (inactive) | 1.56 µM (inactive) | 1.75 µM (inactive) | 1.45 µM (inactive) | 1.52 µM (inactive) | 0.818 µM (active) | 2.47 µM (inactive) | 7.53 µM (inactive) | 1.76 µM (inactive) | 1.32 µM (inactive)
O=C(O)C(O)Cc1ccccn1 (configuration not stated) |  | > 100 µM (inactive) |  | > 100 µM (inactive) | > 100 µM (inactive) |  | > 100 µM (inactive) | > 100 µM (inactive) | > 100 µM (inactive) | > 100 µM (inactive) | > 100 µM (inactive) | > 100 µM (inactive) | > 100 µM (inactive) | > 100 µM (inactive) | > 100 µM (inactive) | > 100 µM (inactive) | > 100 µM (inactive) | > 100 µM (inactive) |  | > 100 µM (inactive)
Cc1cc(O)c2c(c1O)C(=O)C13C(=C(O)C4C(O)C1C1C(O)C3C(O)=C3C(=O)c5c(O)cc(C)c(O)c5C(=O)C341)C2=O (configuration not stated) | 0.0541 µM (active) |  | 0.0471 µM (active) | 0.267 µM (active) |  | 0.0499 µM (active) | 0.0214 µM (active) | 0.0726 µM (active) | 0.106 µM (active) | 0.0489 µM (active) | 0.0491 µM (active) | 0.0121 µM (active) | 0.032 µM (active) | 0.0542 µM (active) | 0.035 µM (active) | 0.15 µM (active) | 0.778 µM (active) | 0.0378 µM (active) | 0.134 µM (active) | 0.185 µM (active)
O=C(O)C(F)(F)C(F)(F)C(F)(F)C(F)(F)C(F)(F)C(F)(F)C(F)(F)C(F)(F)F | > 100 µM (inactive) | 28.1 µM (inactive) | 50.5 µM (inactive) | > 100 µM (inactive) | > 100 µM (inactive) | 71.8 µM (inactive) | 26.4 µM (inactive) | 53.1 µM (inactive) | > 100 µM (inactive) | > 100 µM (inactive) | > 100 µM (inactive) |  | 86.9 µM (inactive) | 54.7 µM (inactive) | 28.2 µM (inactive) | 44.9 µM (inactive) | 33.3 µM (inactive) | 29.6 µM (inactive) | 43.2 µM (inactive) | 62.5 µM (inactive)
C[S+](C)CC1OC(n2cnc3c(N)ncnc32)C(O)C1O (configuration not stated) | > 225 µM (inactive) |  | > 178 µM (inactive) | > 225 µM (inactive) |  | > 225 µM (inactive) | > 225 µM (inactive) | > 225 µM (inactive) | > 225 µM (inactive) | > 96.2 µM (inactive) | > 225 µM (inactive) | > 225 µM (inactive) | > 225 µM (inactive) | > 225 µM (inactive) | > 225 µM (inactive) | > 225 µM (inactive) | > 225 µM (inactive) | > 225 µM (inactive) | > 225 µM (inactive) | > 225 µM (inactive)
